Data from patent US20240050428A1 (Cullgen (Shanghai), Inc., priority 2020, published 2024).
Where two headings read alike, the source gives them in different places.

Tests used:
MOLM-13 cells = test: Cell viability assay (CellTiter-Glo) in MOLM-13 cells, alone or with gilteritinib; type: cell-based; conditions: Homo sapiens, MOLM-13 cells, three days, CellTiter-Glo
MV4;11 cells = test: Cell viability assay (CellTiter-Glo) in MV4;11 cells, alone or with gilteritinib; type: cell-based; conditions: Homo sapiens, MV4;11 cells, three days, CellTiter-Glo, read-out: MV4
[1] = MOLM-13, 72 h, compound alone (without gilteritinib), read-out: MOLM-13 IC50
[2] = MOLM-13, 72 h, compound with gilteritinib 20 nM, read-out: MOLM-13 IC50 gilteritinib
[3] = MV4-11, 72 h, compound alone (without gilteritinib), 11 IC50
[4] = MV4-11, 72 h, compound with gilteritinib 10 nM, 11 IC50 gilteritinib

| SMILES | IC50 (MOLM-13 cells; [1]) | IC50 (MOLM-13 cells; [2]) | IC50 (MV4;11 cells; [3]) | IC50 (MV4;11 cells; [4]) | IC50 (MOLM-13 cells; 72 h, compound alone (without gilteritinib), read-out: MOLM-13 IC50) | IC50 (MOLM-13 cells; 72 h, compound with gilteritinib 20 nM, read-out: MOLM-13 IC50 gilteritinib) | IC50 (MV4;11 cells; 72 h, compound alone (without gilteritinib), 11 IC50) | IC50 (MV4;11 cells; 72 h, compound with gilteritinib 10 nM, 11 IC50 gilteritinib) |
| --- | --- | --- | --- | --- | --- | --- | --- | --- |
| CN1C(=O)CCC(N2C(=O)c3ccc(NCCC[C@H]4C[C@H](n5cc(-c6cnc7ccccc7n6)c(C6CC6)n5)C4)cc3C2=O)C1=O (stereo partly drawn) [GS-600, 5-((3-(trans-3-(3-Cyclopropyl-4-(quinoxalin-2-yl)-1H-pyrazol-1-yl)cyclobutyl)propyl)amino)-2-(1-methyl-2,6-dioxopiperidin-3-yl)isoindoline-1,3-dione] | > 1000 nM | > 1000 nM | > 1000 nM | > 1000 nM | – | – | – | – |
| O=C1CCC(N2C(=O)c3ccc(NC[C@H]4C[C@H](n5cc(-c6ccncn6)c(C6CC6)n5)C4)cc3C2=O)C(=O)N1 (stereo partly drawn) [GS-601, 5-(((trans-3-(3-Cyclopropyl-4-(pyrimidin-4-yl)-1H-pyrazol-1-yl)cyclobutyl)methyl)amino)-2-(2,6-dioxopiperidin-3-yl)isoindoline-1,3-dione] | – | – | – | – | > 1000 nM | 10 to 100 nM | 10 to 100 nM | > 1000 nM |
| Cc1cccnc1-c1cnn([C@H]2C[C@H](CCCNc3ccc4c(c3)C(=O)N(C3CCC(=O)NC3=O)C4=O)C2)c1 (stereo partly drawn) [GS-602, 2-(2,6-Dioxopiperidin-3-yl)-5-((3-(trans-3-(4-(3-methylpyridin-2-yl)-1H-pyrazol-1-yl)cyclobutyl)propyl)amino)isoindoline-1,3-dione] | 100 to 1000 nM | 10 to 100 nM | 10 to 100 nM | < 10 nM | – | – | – | – |
| Cc1ccnc(-c2cnn([C@H]3C[C@H](CCCNc4ccc5c(c4)C(=O)N(C4CCC(=O)NC4=O)C5=O)C3)c2)c1 (stereo partly drawn) [GS-603, 2-(2,6-Dioxopiperidin-3-yl)-5-((3-(trans-3-(4-(4-methylpyridin-2-yl)-1H-pyrazol-1-yl)cyclobutyl)propyl)amino)isoindoline-1,3-dione] | 100 to 1000 nM | 10 to 100 nM | 10 to 100 nM | < 10 nM | – | – | – | – |
| O=C1CCC(N2C(=O)c3ccc(NC[C@H]4C[C@H](n5cc(-c6ncccc6N6CCNCC6)c(C6CC6)n5)C4)cc3C2=O)C(=O)N1 (stereo partly drawn) [GS-604, 5-(((trans-3-(3-cyclopropyl-4-(3-(piperazin-1-yl)pyridin-2-yl)-1H-pyrazol-1-yl)cyclobutyl)methyl)amino)-2-(2,6-dioxopiperidin-3-yl)isoindoline-1,3-dione] | 10 to 100 nM | < 10 nM | 10 to 100 nM | < 10 nM | – | – | – | – |
| O=C1CCC(N2C(=O)c3ccc(NC[C@H]4C[C@H](n5cc(-c6cccc(C7CNC7)n6)c(C6CC6)n5)C4)cc3C2=O)C(=O)N1 (stereo partly drawn) [GS-605, 5-(((trans-3-(4-(6-(Azetidin-3-yl)pyridin-2-yl)-3-cyclopropyl-1H-pyrazol-1-yl)cyclobutyl)methyl)amino)-2-(2,6-dioxopiperidin-3-yl)isoindoline-1,3-dione] | > 1000 nM | > 1000 nM | > 1000 nM | > 1000 nM | – | – | – | – |
| CN(C)c1ccnc(-c2cn([C@H]3C[C@H](CNc4ccc5c(c4)C(=O)N(C4CCC(=O)NC4=O)C5=O)C3)nc2C2CC2)c1 (stereo partly drawn) [GS-606, 5-(((trans-3-(3-Cyclopropyl-4-(4-(dimethylamino)pyridin-2-yl)-1H-pyrazol-1-yl)cyclobutyl)methyl)amino)-2-(2,6-dioxopiperidin-3-yl)isoindoline-1,3-dione] | > 1000 nM | > 1000 nM | > 1000 nM | > 1000 nM | – | – | – | – |
| O=C1CCC(N2C(=O)c3ccc(NC[C@H]4C[C@H](n5cc(-c6cc(N7CCNCC7)ccn6)c(C6CC6)n5)C4)cc3C2=O)C(=O)N1 (stereo partly drawn) [GS-607, 5-(((trans-3-(3-Cyclopropyl-4-(4-(piperazin-1-yl)pyridin-2-yl)-1H-pyrazol-1-yl)cyclobutyl)methyl)amino)-2-(2,6-dioxopiperidin-3-yl)isoindoline-1,3-dione] | > 1000 nM | > 1000 nM | > 1000 nM | > 1000 nM | – | – | – | – |
| CN1CCN(c2ccnc(-c3cn([C@H]4C[C@H](CNc5ccc6c(c5)C(=O)N(C5CCC(=O)NC5=O)C6=O)C4)nc3C3CC3)c2)CC1 (stereo partly drawn) [GS-608, 5-(((trans-3-(3-Cyclopropyl-4-(4-(4-methylpiperazin-1-yl)pyridin-2-yl)-1H-pyrazol-1-yl)cyclobutyl)methyl)amino)-2-(2,6-dioxopiperidin-3-yl)isoindoline-1,3-dione] | > 1000 nM | > 1000 nM | > 1000 nM | > 1000 nM | – | – | – | – |
| Cc1nc(-c2cn([C@H]3C[C@H](CNc4ccc5c(c4)C(=O)N(C4CCC(=O)NC4=O)C5=O)C3)nc2C2CC2)ccc1Cl (stereo partly drawn) [GS-609, 5-(((trans-3-(4-(5-Chloro-6-methylpyridin-2-yl)-3-cyclopropyl-1H-pyrazol-1-yl)cyclobutyl)methyl)amino)-2-(2,6-dioxopiperidin-3-yl)isoindoline-1,3-dione] | 10 to 100 nM | < 10 nM | 10 to 100 nM | < 10 nM | – | – | – | – |
| O=C1CCC(N2C(=O)c3ccc(NC[C@H]4C[C@H](n5cc(-c6cnc7c(N8CC(O)C8)cccc7n6)c(C6CC6)n5)C4)cc3C2=O)C(=O)N1 (some centres unmarked) [GS-610] | < 10 nM | < 10 nM | < 10 nM | < 10 nM | – | – | – | – |
| Cn1ncc2c(-c3cn([C@H]4C[C@H](CNc5ccc6c(c5)C(=O)N(C5CCC(=O)NC5=O)C6=O)C4)nc3C3CC3)nccc21 (stereo partly drawn) [GS-611, 5-(((trans-3-(3-Cyclopropyl-4-(1-methyl-1H-pyrazolo[4,3-c]pyridin-4-yl)-1H-pyrazol-1-yl)cyclobutyl)methyl)amino)-2-(2,6-dioxopiperidin-3-yl)isoindoline-1,3-dione] | < 10 nM | < 10 nM | < 10 nM | < 10 nM | – | – | – | – |
| CC(C)n1ncc2c(-c3cn([C@H]4C[C@H](CNc5ccc6c(c5)C(=O)N(C5CCC(=O)NC5=O)C6=O)C4)nc3C3CC3)nccc21 (stereo partly drawn) [GS-612, 5-(((trans-3-(3-Cyclopropyl-4-(1-isopropyl-1H-pyrazolo[4,3-c]pyridin-4-yl)-1H-pyrazol-1-yl)cyclobutyl)methyl)amino)-2-(2,6-dioxopiperidin-3-yl)isoindoline-1,3-dione] | < 10 nM | < 10 nM | < 10 nM | < 10 nM | – | – | – | – |
| Cn1ncc2cnc(-c3cn([C@H]4C[C@H](CNc5ccc6c(c5)C(=O)N(C5CCC(=O)NC5=O)C6=O)C4)nc3C3CC3)cc21 (stereo partly drawn) [GS-613, 5-(((trans-3-(3-Cyclopropyl-4-(1-methyl-1H-pyrazolo[4,3-c]pyridin-6-yl)-1H-pyrazol-1-yl)cyclobutyl)methyl)amino)-2-(2,6-dioxopiperidin-3-yl)isoindoline-1,3-dione] | 10 to 100 nM | < 10 nM | < 10 nM | < 10 nM | – | – | – | – |
| CC(C)n1ncc2cnc(-c3cn([C@H]4C[C@H](CNc5ccc6c(c5)C(=O)N(C5CCC(=O)NC5=O)C6=O)C4)nc3C3CC3)cc21 (stereo partly drawn) [GS-614, 5-(((trans-3-(3-Cyclopropyl-4-(1-isopropyl-1H-pyrazolo[4,3-c]pyridin-6-yl)-1H-pyrazol-1-yl)cyclobutyl)methyl)amino)-2-(2,6-dioxopiperidin-3-yl)isoindoline-1,3-dione] | 10 to 100 nM | < 10 nM | < 10 nM | < 10 nM | – | – | – | – |
| Cn1ccc2c(-c3cn([C@H]4C[C@H](CNc5ccc6c(c5)C(=O)N(C5CCC(=O)NC5=O)C6=O)C4)nc3C3CC3)nccc21 (stereo partly drawn) [GS-615, 5-(((trans-3-(3-Cyclopropyl-4-(1-methyl-1H-pyrrolo[3,2-c]pyridin-4-yl)-1H-pyrazol-1-yl)cyclobutyl)methyl)amino)-2-(2,6-dioxopiperidin-3-yl)isoindoline-1,3-dione] | 10 to 100 nM | < 10 nM | 10 to 100 nM | < 10 nM | – | – | – | – |
| O=C1CCC(N2C(=O)c3ccc(NC[C@H]4C[C@H](n5cc(-c6ccc7c(n6)CCC7)c(C6CC6)n5)C4)cc3C2=O)C(=O)N1 (stereo partly drawn) [GS-616, 5-(((trans-3-(3-Cyclopropyl-4-(6,7-dihydro-5H-cyclopenta[b]pyridin-2-yl)-1H-pyrazol-1-yl)cyclobutyl)methyl)amino)-2-(2,6-dioxopiperidin-3-yl)isoindoline-1,3-dione] | 10 to 100 nM | < 10 nM | 10 to 100 nM | < 10 nM | – | – | – | – |
| CN1CCC(Nc2cccnc2-c2cn([C@H]3C[C@H](CNc4ccc5c(c4)C(=O)N(C4CCC(=O)NC4=O)C5=O)C3)nc2C2CC2)CC1 (stereo partly drawn) [GS-617, 5-(((trans-3-(3-Cyclopropyl-4-(3-((1-methylpiperidin-4-yl)amino)pyridin-2-yl)-1H-pyrazol-1-yl)cyclobutyl)methyl)amino)-2-(2,6-dioxopiperidin-3-yl)isoindoline-1,3-dione] | > 1000 nM | > 1000 nM | > 1000 nM | > 1000 nM | – | – | – | – |
| Cn1ccc2cnc(-c3cn([C@H]4C[C@H](CNc5ccc6c(c5)C(=O)N(C5CCC(=O)NC5=O)C6=O)C4)nc3C3CC3)cc21 (stereo partly drawn) [GS-618, 5-(((trans-3-(3-Cyclopropyl-4-(1-methyl-1H-pyrrolo[3,2-c]pyridin-6-yl)-1H-pyrazol-1-yl)cyclobutyl)methyl)amino)-2-(2,6-dioxopiperidin-3-yl)isoindoline-1,3-dione] | 10 to 100 nM | < 10 nM | < 10 nM | < 10 nM | – | – | – | – |
| CN1CC(c2cccc(-c3cn([C@H]4C[C@H](CNc5ccc6c(c5)C(=O)N(C5CCC(=O)NC5=O)C6=O)C4)nc3C3CC3)n2)C1 (stereo partly drawn) [GS-619, 5-(((trans-3-(3-Cyclopropyl-4-(6-(1-methylazetidin-3-yl)pyridin-2-yl)-1H-pyrazol-1-yl)cyclobutyl)methyl)amino)-2-(2,6-dioxopiperidin-3-yl)isoindoline-1,3-dione] | > 1000 nM | > 1000 nM | > 1000 nM | > 1000 nM | – | – | – | – |
